Patent publication US10870652B2, “Compounds and methods for modulating bruton's tyrosine kinase” (CORVUS PHARMACEUTICALS, INC., priority 2016, dated 2020)

Assays:
Type in all cases: biochemical
TXK = biological target: T1, TXK (Homo sapiens, UniProt P42681); experiment: TXK IC50 kinase inhibition assay
T1 sequence (P42681 1-527): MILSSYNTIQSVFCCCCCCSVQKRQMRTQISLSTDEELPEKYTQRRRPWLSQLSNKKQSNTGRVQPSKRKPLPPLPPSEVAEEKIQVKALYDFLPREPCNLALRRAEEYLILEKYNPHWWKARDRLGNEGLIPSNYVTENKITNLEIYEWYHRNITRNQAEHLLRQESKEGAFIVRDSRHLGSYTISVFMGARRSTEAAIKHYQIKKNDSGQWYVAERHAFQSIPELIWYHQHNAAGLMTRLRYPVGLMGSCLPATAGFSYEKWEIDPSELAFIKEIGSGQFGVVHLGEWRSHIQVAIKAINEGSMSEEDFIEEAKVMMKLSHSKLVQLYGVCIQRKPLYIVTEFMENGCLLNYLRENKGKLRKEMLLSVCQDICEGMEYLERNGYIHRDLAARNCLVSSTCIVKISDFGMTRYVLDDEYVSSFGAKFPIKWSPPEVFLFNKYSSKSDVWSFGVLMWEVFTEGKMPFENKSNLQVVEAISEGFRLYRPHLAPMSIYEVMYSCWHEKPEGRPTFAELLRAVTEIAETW

BTK = BTK (Homo sapiens, UniProt Q06187); experiment: BTK IC50 kinase inhibition assay
Sequence of BTK (Q06187 whole entry): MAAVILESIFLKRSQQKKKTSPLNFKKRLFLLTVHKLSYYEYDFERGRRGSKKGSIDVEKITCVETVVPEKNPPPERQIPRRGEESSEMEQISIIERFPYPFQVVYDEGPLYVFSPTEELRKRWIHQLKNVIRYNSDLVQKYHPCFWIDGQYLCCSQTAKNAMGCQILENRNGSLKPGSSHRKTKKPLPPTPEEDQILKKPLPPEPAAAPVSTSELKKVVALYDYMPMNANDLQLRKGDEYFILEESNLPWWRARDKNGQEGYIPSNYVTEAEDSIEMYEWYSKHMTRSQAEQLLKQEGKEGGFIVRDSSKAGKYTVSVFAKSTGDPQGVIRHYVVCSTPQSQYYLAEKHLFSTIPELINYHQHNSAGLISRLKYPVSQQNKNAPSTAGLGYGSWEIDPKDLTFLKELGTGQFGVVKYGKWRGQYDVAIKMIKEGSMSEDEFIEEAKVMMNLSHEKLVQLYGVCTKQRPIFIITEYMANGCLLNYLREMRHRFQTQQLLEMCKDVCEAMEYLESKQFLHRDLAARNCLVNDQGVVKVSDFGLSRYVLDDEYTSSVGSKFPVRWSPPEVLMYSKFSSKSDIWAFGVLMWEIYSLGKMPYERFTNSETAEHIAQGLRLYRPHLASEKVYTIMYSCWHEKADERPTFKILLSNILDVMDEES

JAK3 = biological target: T2, JAK3 (Homo sapiens, UniProt P52333); experiment: JAK3 IC50 kinase inhibition assay
T2 sequence (P52333 1-1124): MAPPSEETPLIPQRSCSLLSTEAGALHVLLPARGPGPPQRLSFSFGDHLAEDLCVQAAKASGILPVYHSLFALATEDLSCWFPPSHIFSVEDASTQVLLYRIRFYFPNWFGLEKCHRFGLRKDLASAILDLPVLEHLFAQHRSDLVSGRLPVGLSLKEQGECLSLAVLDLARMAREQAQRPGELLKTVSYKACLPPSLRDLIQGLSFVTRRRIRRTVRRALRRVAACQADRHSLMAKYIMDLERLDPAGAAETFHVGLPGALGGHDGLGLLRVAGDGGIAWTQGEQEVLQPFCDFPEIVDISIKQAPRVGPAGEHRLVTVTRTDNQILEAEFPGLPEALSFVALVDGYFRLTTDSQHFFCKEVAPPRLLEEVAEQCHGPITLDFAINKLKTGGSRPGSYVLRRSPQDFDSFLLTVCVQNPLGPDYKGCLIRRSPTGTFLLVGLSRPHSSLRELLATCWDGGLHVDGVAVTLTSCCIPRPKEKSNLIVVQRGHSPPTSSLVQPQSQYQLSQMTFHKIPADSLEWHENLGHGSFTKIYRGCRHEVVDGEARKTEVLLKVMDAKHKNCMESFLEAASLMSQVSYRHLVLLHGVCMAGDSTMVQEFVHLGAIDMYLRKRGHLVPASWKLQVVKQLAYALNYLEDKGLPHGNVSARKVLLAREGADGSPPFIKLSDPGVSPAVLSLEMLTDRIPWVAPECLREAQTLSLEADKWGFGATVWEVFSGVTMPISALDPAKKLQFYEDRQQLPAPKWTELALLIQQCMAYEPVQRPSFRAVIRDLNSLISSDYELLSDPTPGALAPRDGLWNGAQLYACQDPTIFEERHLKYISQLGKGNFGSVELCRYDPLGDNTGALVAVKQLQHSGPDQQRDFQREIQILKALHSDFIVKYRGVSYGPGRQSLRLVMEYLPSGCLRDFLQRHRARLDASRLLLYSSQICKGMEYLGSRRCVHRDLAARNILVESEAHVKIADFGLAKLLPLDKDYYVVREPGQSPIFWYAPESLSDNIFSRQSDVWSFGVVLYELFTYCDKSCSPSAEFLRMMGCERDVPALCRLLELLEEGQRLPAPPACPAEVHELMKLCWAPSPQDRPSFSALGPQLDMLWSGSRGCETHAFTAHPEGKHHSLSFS

ITK = biological target: T3, ITK (Homo sapiens, UniProt Q08881); experiment: ITK IC50 kinase inhibition assay
T3 sequence (Q08881 1-620): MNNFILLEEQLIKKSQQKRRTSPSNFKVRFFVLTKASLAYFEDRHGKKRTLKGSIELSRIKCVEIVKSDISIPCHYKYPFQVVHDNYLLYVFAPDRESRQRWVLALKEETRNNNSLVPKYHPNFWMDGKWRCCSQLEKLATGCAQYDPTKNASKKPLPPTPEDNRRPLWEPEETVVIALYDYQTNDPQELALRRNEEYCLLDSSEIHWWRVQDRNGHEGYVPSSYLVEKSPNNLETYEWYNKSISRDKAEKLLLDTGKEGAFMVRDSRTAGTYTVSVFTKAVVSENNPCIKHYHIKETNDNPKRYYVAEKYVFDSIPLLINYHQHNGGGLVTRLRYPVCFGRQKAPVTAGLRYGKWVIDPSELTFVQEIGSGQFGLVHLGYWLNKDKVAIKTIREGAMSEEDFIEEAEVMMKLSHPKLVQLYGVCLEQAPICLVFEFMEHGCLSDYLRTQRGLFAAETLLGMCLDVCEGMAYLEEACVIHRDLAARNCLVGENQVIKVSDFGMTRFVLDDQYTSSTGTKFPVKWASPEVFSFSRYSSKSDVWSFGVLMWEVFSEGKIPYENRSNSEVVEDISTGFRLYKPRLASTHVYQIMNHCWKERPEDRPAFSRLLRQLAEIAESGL

Compound | IC50 (TXK) | IC50 (BTK) | IC50 (JAK3) | IC50 (ITK)
C=CC(=O)N1CC[C@H](Cn2nc(-c3ccc(Oc4ccccc4)cc3)c3cncnc32)C1 [Compound A15, (S)-1-(3-((3-(4-phenoxyphenyl)-1H-pyrazolo[3,4-d]pyrimidin-1-yl)methyl)pyrrolidin-1-yl)prop-2-en-1-one] | 100 to 500 nM | < 100 nM | > 500 nM | > 500 nM
CC#CC(=O)N1CCC[C@@H](n2nc(-c3ccc(Oc4ccccc4)cc3)c3cncnc32)C1 [Compound A16, (R)-1-(3-(3-(4-phenoxyphenyl)-1H-pyrazolo[3,4-d]pyrimidin-1-yl)piperidin-1-yl)but-2-yn-1-one] | > 500 nM | > 500 nM | > 500 nM | > 500 nM
CC#CC(=O)N1CC[C@@H](n2nc(-c3ccc(Oc4ccccc4)cc3)c3cncnc32)C1 [Compound A18, (R)-1-(3-(3-(4-phenoxyphenyl)-1H-pyrazolo[3,4-d]pyrimidin-1-yl)pyrrolidin-1-yl)but-2-yn-1-one] | > 500 nM | 100 to 500 nM | > 500 nM | > 500 nM
CC#CC(=O)N1CCC[C@H]1Cn1nc(-c2ccc(Oc3ccccc3)cc2F)c2cncnc21 [Compound A20, (S)-1-(2-((3-(2-fluoro-4-phenoxyphenyl)-1H-pyrazolo[3,4-d]pyrimidin-1-yl)methyl)pyrrolidin-1-yl)but-2-yn-1-one] | > 500 nM | < 100 nM | > 500 nM | > 500 nM
C=C(C)C(=O)N1CCC[C@@H](n2nc(-c3ccc(Oc4ccccc4)cc3)c3cncnc32)C1 [Compound A21, (R)-2-methyl-1-(3-(3-(4-phenoxyphenyl)-1H-pyrazolo[3,4-d]pyrimidin-1-yl)piperidin-1-yl)prop-2-en-1-one] | > 500 nM | > 500 nM | > 500 nM | > 500 nM
CN(C)C/C=C/C(=O)N1CC[C@@H](n2nc(-c3ccc(Oc4ccccc4)cc3)c3cncnc32)C1 [Compound A25] | > 500 nM | < 100 nM | > 500 nM | > 500 nM
C=CC(=O)N1CCC[C@H]1c1nc(-c2ccc(Oc3ccccc3)cc2)c2cnccn12 [Compound A29, (S)-1-(2-(1-(4-phenoxyphenyl)imidazo[1,5-a]pyrazin-3-yl)pyrrolidin-1-yl)prop-2-en-1-one] | 100 to 500 nM | < 100 nM | > 500 nM | > 500 nM
CC#CC(=O)N1CCC[C@H]1c1nc(-c2ccc(Oc3ccccc3)cc2)c2cnccn12 [Compound A31, (S)-1-(2-(1-(4-phenoxyphenyl)imidazo[1,5-a]pyrazin-3-yl)pyrrolidin-1-yl)but-2-yn-1-one] | > 500 nM | > 500 nM | > 500 nM | > 500 nM

Other lines, results leading:

IC50 (TXK) | IC50 (BTK) | IC50 (JAK3) | IC50 (ITK) | Compound
100 to 500 nM | 100 to 500 nM | > 500 nM | > 500 nM | C=CC(=O)N1CC[C@@H](Cn2nc(-c3ccc(Oc4ccccc4)cc3)c3cncnc32)C1 [Compound A14, (R)-1-(3-((3-(4-phenoxyphenyl)-1H-pyrazolo[34-d]pyrimidin-1-yl)methyl)pyrrolidin-1-yl)prop-2-en-1-one]
< 100 nM | < 100 nM | > 500 nM | > 500 nM | C=CC(=O)N1CC[C@@H](n2nc(-c3ccc(Oc4ccccc4)cc3F)c3cncnc32)C1 [Compound A17, (R)-1-(3-(3-(2-fluoro-4-phenoxyphenyl)-1H-pyrazolo[3,4-d]pyrimidin-1-yl)pyrrolidin-1-yl)prop-2-en-1-one]
< 100 nM | < 100 nM | > 500 nM | > 500 nM | C=CC(=O)N1CCC[C@H]1Cn1nc(-c2ccc(Oc3ccccc3)cc2F)c2cncnc21 [Compound A19, (S)-1-(2-((3-(2-fluoro-4-phenoxyphenyl)-1H-pyrazolo[3,4-d]pyrimidin-1-yl)methyl)pyrrolidin-1-yl)prop-2-en-1-one]
< 100 nM | < 100 nM | > 500 nM | > 500 nM | C=CC(=O)N1CCC[C@H]1Cn1nc(-c2ccc(Oc3ccccc3)cc2)c2cnccc21 [Compound A22, (S)-1-(2-((3-(4-phenoxyphenyl)-1H-pyrazolo[4,3-c]pyridin-1-yl)methyl)pyrrolidin-1-yl)prop-2-en-1-one]
< 100 nM | < 100 nM | > 500 nM | > 500 nM | C=CC(=O)N1CCC[C@@H](n2nc(-c3ccc(Oc4ccccc4)cc3)c3cnccc32)C1 [Compound A23, (R)-1-(3-(3-(4-phenoxyphenyl)-H-pyrazolo[4,3-c]pyridin-1-yl)piperidin-1-yl)prop-2-en-1-one]
< 100 nM | < 100 nM | > 500 nM | > 500 nM | C=CC(=O)N1CCC[C@@H](n2nc(-c3ccc(Oc4ccccc4)cc3F)c3cnccc32)C1 [Compound A24, (R)-1-(3-(3-(2-fluoro-4-phenoxyphenyl)-1H-pyrazolo[4,3-c]pyridin-1-yl)piperidin-1-yl)prop-2-en-1-one]
< 100 nM | < 100 nM | > 500 nM | > 500 nM | C=CC(=O)N1CCC[C@@H](n2nc(-c3ccc(Oc4ccccc4)cc3)c3cncc(F)c32)C1 [Compound A26, (R)-1-(3-(7-fluoro-3-(4-phenoxyphenyl)-1H-pyrazolo[4,3-c]pyridin-1-yl)piperidin-1-yl)prop-2-en-1-one]
< 100 nM | < 100 nM | > 500 nM | > 500 nM | C=CC(=O)N1CCC[C@H]1Cn1nc(-c2ccc(Oc3ccccc3)cc2)c2cncc(F)c21 [Compound A27, (S)-1-(2-((7-fluoro-3-(4-phenoxyphenyl)-1H-pyrazolo[4,3-c]pyridin-1-yl)methyl)pyrrolidin-1-yl)prop-2-en-1-one]
< 100 nM | < 100 nM | > 500 nM | > 500 nM | C=CC(=O)N1CCC[C@@H](c2nc(-c3ccc(Oc4ccccc4)cc3)c3cnccn23)C1 [Compound A28, (R)-1-(3-(1-(4-phenoxyphenyl)imidazo[1,5-a]pyrazin-3-yl)piperidin-1-yl)prop-2-en-1-one]
< 100 nM | < 100 nM | > 500 nM | > 500 nM | C=CC(=O)N1CC[C@@H](c2nc(-c3ccc(Oc4ccccc4)cc3)c3cnccn23)C1 [Compound A30, (R)-1-(3-(1-(4-phenoxyphenyl)imidazo[1,5-a]pyrazin-3-yl)pyrrolidin-1-yl)prop-2-en-1-one]
